Source: US6608082B1, “Treatment of erectile dysfunction using isoquinoline compound melanocortin receptor ligands” (Lion Bioscience AG, priority 1998, dated 2003)

Target: T1, MCR-1 (Homo sapiens, UniProt Q01726)
T1 construct: expressed in transfected cells; host or cells: HEK 293
Assay: Melanocortin receptor binding assay, competition with 125I-HP 467, HEK 293 cells expressing hMCR-1
Settings: displacement of 125I-HP 467 at 10 μM isoquinoline compound
Experimental: All cell culture media and reagents were obtained from GibcoBRL (Gaithersburg Md.), except for COSMIC CALF SERUM (HyClone; Logan Utah).
Cells were suspended in PBS, 10% COSMIC CALF SERUM and 1 mM CaCl2. Cell suspensions were prepared at a density of 2×10^4 cells/ml for HEK 293 cells expressing hMCR-3, hMCR-4 or hMCR-5, and 1×10^5 cells/ml for HEK 293 cells expressing hMCR-1. Suspensions were placed in a water bath and allowed to warm to 37° C. for 1 hr.
Binding assays were performed in a total volume of 250 μl for HEK 293 cells. […] To each tube was added 4×10^3 HEK 293 cells expressing hMCR-3, hMCR-4 or hMCR-5, or 2×10^4 cells expressing hMCR-1. Assays were incubated for 2.5 hr at 37° C.
GF/B filter plates were prepared by soaking for at least one hour in 5 mg/ml BSA and 10 mM CaCl2. Assays were filtered using a Brandel 96-well cell harvester (Brandel Inc.; Gaithersburg, Md.). The filters were washed four times with cold 50 mM Tris, pH 7.4, the filter plates were dehydrated for 2 hr and 35 μl of MICROSCINT was added to each well. Filter plates were counted using a Packard Topcount (Packard Instrument Co.) and data analyzed using GraphPad PRISM v2.0 (GraphPad Software Inc.; San Diego Calif.) and Microsoft EXCEL v5.0a (Microsoft Corp.; Redmond Wash.).
To assay isoquinoline compounds, binding assays were performed in duplicate in a 96 well format. […] A 0.2 ml aliquot of suspended cells was added to each well to give the cell numbers indicate above, and the cells were incubated at 37° C. for 2.5 hr. Cells were harvested on GF/B filter plates as described above and counted.

T1 sequence (Q01726 whole entry): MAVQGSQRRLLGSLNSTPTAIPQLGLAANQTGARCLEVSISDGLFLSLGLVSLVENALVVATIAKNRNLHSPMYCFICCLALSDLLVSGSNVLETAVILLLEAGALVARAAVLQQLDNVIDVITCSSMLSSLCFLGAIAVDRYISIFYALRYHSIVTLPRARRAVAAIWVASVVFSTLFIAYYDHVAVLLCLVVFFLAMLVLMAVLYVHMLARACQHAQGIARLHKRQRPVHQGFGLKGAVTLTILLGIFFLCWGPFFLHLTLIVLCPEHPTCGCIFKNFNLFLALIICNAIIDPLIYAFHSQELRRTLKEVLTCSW

SMILES	% Disp. MC-1 10 μM (first of duplicate)	% Disp. MC-1 10 μM (second of duplicate)
NCCN1Cc2ccccc2C(CNC2CCCCC2)C1c1c(F)cccc1Cl (stereo not drawn) [TRG 2405-14]	34.2%	29.6%
NCCN1Cc2ccccc2C(CNC2CCCCC2)C1c1ccccc1CN (stereo not drawn) [TRG 2405-15]	23.5%	52.5%
NCCN1Cc2ccccc2C(CNC2CCCCC2)C1c1ccccc1F (stereo not drawn) [TRG 2405-16]	26.8%	40.3%
NCCN1Cc2ccccc2C(CNC2CCCCC2)C1c1ccco1 (stereo not drawn) [TRG 2405-17]	36%	32.8%
NCCN1Cc2ccccc2C(CNC2CCCCC2)C1c1ncc[nH]1 (stereo not drawn) [TRG 2405-18]	35.9%	34.7%
COc1ccccc1C1C(CNC2CCCCC2)c2ccccc2CN1CCN (stereo not drawn) [TRG 2405-19]	42.2%	36.2%
NCCN1Cc2ccccc2C(CNC2CCCCC2)C1c1ccc2ccccc2c1 (stereo not drawn) [TRG 2405-20]	59.8%	53.6%
NCCN1Cc2ccccc2C(CNC2CCCCC2)C1c1ccccn1 (stereo not drawn) [TRG 2405-21]	47.7%	42.5%
NCCN1Cc2ccccc2C(CNC2CCCCC2)C1c1ccc2ccccc2n1 (stereo not drawn) [TRG 2405-22]	29.7%	43.4%
NCCN1Cc2ccccc2C(CNC2CCCCC2)C1c1cccs1 (stereo not drawn) [TRG 2405-23]	43%	47.8%
NCCN1Cc2ccccc2C(CNC2CCCCC2)C1c1ccc(O)c(O)c1 (stereo not drawn) [TRG 2405-25]	21.6%	31.9%
NCCN1Cc2ccccc2C(CNC2CCCCC2)C1c1ccc(Cl)c(Cl)c1 (stereo not drawn) [TRG 2405-26]	59.6%	64.6%
NCCN1Cc2ccccc2C(CNC2CCCCC2)C1c1ccc(F)c(F)c1 (stereo not drawn) [TRG 2405-27]	52.1%	43.8%
NCCN1Cc2ccccc2C(CNC2CCCCC2)C1c1cc(O)cc(O)c1 (stereo not drawn) [TRG 2405-29]	28.5%	26.2%
NCCN1Cc2ccccc2C(CNC2CCCCC2)C1c1cc(Cl)cc(Cl)c1 (stereo not drawn) [TRG 2405-30]	54.7%	52.8%
COc1cc(OC)cc(C2C(CNC3CCCCC3)c3ccccc3CN2CCN)c1 (stereo not drawn) [TRG 2405-31]	40.7%	48.5%
Cc1cc(C2C(CNC3CCCCC3)c3ccccc3CN2CCN)cc(C)c1O (stereo not drawn) [TRG 2405-32]	10.1%	38.3%

SMILES	% Disp. MC-1 10 μM (first of duplicate)	% Disp. MC-1 10 μM (second of duplicate)
NCCN1Cc2ccccc2C(CNC2CCCCC2)C1c1cccc(Oc2ccc(Cl)c(Cl)c2)c1 (stereo not drawn) [TRG 2405-33]	54.2%	48.7%
COc1ccc(Oc2cccc(C3C(CNC4CCCCC4)c4ccccc4CN3CCN)c2)cc1 (stereo not drawn) [TRG 2405-34]	55.6%	56.1%
NCCN1Cc2ccccc2C(CNC2CCCCC2)C1c1cccc(C(F)(F)F)c1 (stereo not drawn) [TRG 2405-35]	54.6%	55%
NCCN1Cc2ccccc2C(CNC2CCCCC2)C1c1ccc(F)c(Br)c1 (stereo not drawn) [TRG 2405-36]	51.8%	53.6%
NCCN1Cc2ccccc2C(CNC2CCCCC2)C1c1cccc(Br)c1 (stereo not drawn) [TRG 2405-37]	49.7%	54.4%
NCCN1Cc2ccccc2C(CNC2CCCCC2)C1c1cccc(CN)c1 (stereo not drawn) [TRG 2405-39]	23.2%	16.9%
COc1ccc(C2C(CNC3CCCCC3)c3ccccc3CN2CCN)cc1F (stereo not drawn) [TRG 2405-40]	22.4%	35.5%
NCCN1Cc2ccccc2C(CNC2CCCCC2)C1c1cccc(F)c1 (stereo not drawn) [TRG 2405-41]	19.6%	19.8%
NCCN1Cc2ccccc2C(CNC2CCCCC2)C1c1ccoc1 (stereo not drawn) [TRG 2405-42]	43.6%	40.7%
NCCN1Cc2ccccc2C(CNC2CCCCC2)C1c1cccc(O)c1 (stereo not drawn) [TRG 2405-43]	32.3%	23.1%
COc1cccc(C2C(CNC3CCCCC3)c3ccccc3CN2CCN)c1 (stereo not drawn) [TRG 2405-45]	40.6%	31.9%
COc1ccc(C2C(CNC3CCCCC3)c3ccccc3CN2CCN)cc1C (stereo not drawn) [TRG 2405-46]	46.8%	40.3%
NCCN1Cc2ccccc2C(CNC2CCCCC2)C1c1cccc([N+](=O)[O-])c1 (stereo not drawn) [TRG 2405-49]	37.2%	42.4%
NCCN1Cc2ccccc2C(CNC2CCCCC2)C1c1cccc(Oc2ccccc2)c1 (stereo not drawn) [TRG 2405-50]	61.9%	50.8%
NCCN1Cc2ccccc2C(CNC2CCCCC2)C1c1cccnc1 (stereo not drawn) [TRG 2405-51]	30.6%	23.1%
NCCN1Cc2ccccc2C(CNC2CCCCC2)C1c1cnc2ccccc2c1 (stereo not drawn) [TRG 2405-52]	42.4%	42.3%
NCCN1Cc2ccccc2C(CNC2CCCCC2)C1c1ccsc1 (stereo not drawn) [TRG 2405-53]	43.3%	43.4%

Now from value to compound:

% Disp. MC-1 10 μM (first of duplicate)	% Disp. MC-1 10 μM (second of duplicate)	SMILES
1.3%	9%	CN(C)CCCOc1ccc(C2C(CNC3CCCCC3)c3ccccc3CN2CCN)cc1 (stereo not drawn) [TRG 2405-54]
32.6%	38.1%	CN(C)c1ccc(C2C(CNC3CCCCC3)c3ccccc3CN2CCN)cc1 (stereo not drawn) [TRG 2405-55]
17.4%	42.6%	CSc1ccc(C2C(CNC3CCCCC3)c3ccccc3CN2CCN)cc1 (stereo not drawn) [TRG 2405-57]
56.3%	46.6%	NCCN1Cc2ccccc2C(CNC2CCCCC2)C1c1ccc(C(F)(F)F)cc1 (stereo not drawn) [TRG 2405-58]
34.3%	40.1%	CCNc1ccc(C2C(CNC3CCCCC3)c3ccccc3CN2CCN)cc1 (stereo not drawn) [TRG 2405-59]
41.4%	42.4%	COc1ccc(C2C(CNC3CCCCC3)c3ccccc3CN2CCN)cc1 (stereo not drawn) [TRG 2405-60]
54.7%	61.9%	NCCN1Cc2ccccc2C(CNC2CCCCC2)C1c1ccc(-c2ccccc2)cc1 (stereo not drawn) [TRG 2405-61]
32.1%	54.3%	NCCN1Cc2ccccc2C(CNC2CCCCC2)C1c1ccc(Br)cc1 (stereo not drawn) [TRG 2405-62]
49.6%	33.9%	NCCN1Cc2ccccc2C(CNC2CCCCC2)C1c1ccc(F)cc1 (stereo not drawn) [TRG 2405-65]
81.6%	11.3%	NCCN1Cc2ccccc2C(CNC2CCCCC2)C1c1ccc(O)cc1 (stereo not drawn) [TRG 2405-66]
54%	51.3%	CC(C)c1ccc(C2C(CNC3CCCCC3)c3ccccc3CN2CCN)cc1 (stereo not drawn) [TRG 2405-67]
55.3%	52.3%	COc1ccc(C2C(CNC3CCCCC3)c3ccccc3CN2CCN)c2ccccc12 (stereo not drawn) [TRG 2405-68]
49.8%	49%	Cc1ccc(C2C(CNC3CCCCC3)c3ccccc3CN2CCN)cc1 (stereo not drawn) [TRG 2405-69]
19.9%	46.7%	NCCN1Cc2ccccc2C(CNC2CCCCC2)C1c1ccc([N+](=O)[O-])c(O)c1 (stereo not drawn) [TRG 2405-70]
28.2%	40%	NCCN1Cc2ccccc2C(CNC2CCCCC2)C1c1ccc([N+](=O)[O-])cc1 (stereo not drawn) [TRG 2405-71]
50.1%	57.7%	NCCN1Cc2ccccc2C(CNC2CCCCC2)C1c1ccc(Oc2ccccc2)cc1 (stereo not drawn) [TRG 2405-72]
60.1%	60.5%	CCCOc1ccc(C2C(CNC3CCCCC3)c3ccccc3CN2CCN)cc1 (stereo not drawn) [TRG 2405-73]
35.3%	0%	NCCN1Cc2ccccc2C(CNC2CCCCC2)C1c1ccncc1 (stereo not drawn) [TRG 2405-74]
38.9%	17.6%	NCCN1Cc2ccccc2C(CNC2CCCCC2)C1c1ccnc2ccccc12 (stereo not drawn) [TRG 2405-75]
33.3%	40.8%	Cc1ccc(C2C(CNC3CCCCC3)c3ccccc3CN2CCN)s1 (stereo not drawn) [TRG 2405-78]
17.3%	26.3%	Cc1ccc(C2C(CNC3CCCCC3)c3ccccc3CN2CCN)o1 (stereo not drawn) [TRG 2405-79]
0%	43.1%	Cc1cccc(C2C(CNC3CCCCC3)c3ccccc3CN2CCN)n1 (stereo not drawn) [TRG 2405-81]
18.5%	29.6%	NCCN1Cc2ccccc2C(CNC2CCCCC2)C1c1ccc2cccc(O)c2n1 (stereo not drawn) [TRG 2405-82]
